US6503951B2, “Use of creatine and/or creatine derivatives for treating typical disorders in women” (SKW Trostberg Aktiengesellschaft, priority 1999, dated 2003)

Experiments:
[1] = system: depressions, lethargy and physical feebleness; blood pressure; assay: Case 6:  two; format: in vivo, person
Excerpt: Both they themself and their family noticed these improvements.

[2] = system: migraines; pain during menstruation; assay: Case 2:  four with migraines and menstrual pain; format: in vivo, person
[3] = system: depressions, lethargy and physical feebleness; assay: Case 4: postmenopausal person seven; format: in vivo; conditions: daily dose of 1 to 4 g
Excerpt: The improvements were also noticed by their family.

PMS = assay: Case 7:  six with PMS; format: in vivo, person; conditions: average daily dose of 5 g

CN(CC(=O)O)C(=N)N.O [creatine monohydrate]
blood pressure ([1]; combined with an antihypertensive agent, previously severely hypertonic (sys up to 270)): returned to normal
motivation (lethargy) ([1]; daily dose of 1 to 5 g): unexpected new motivation
spirits (depressions) ([1]; daily dose of 1 to 5 g): rise in spirits
strength (physical feebleness) ([1]; daily dose of 1 to 5 g): increase in strength
migraine attacks provoked by heat or bodily or mental exertion ([2]; daily dose of 1.5 g, even under extreme conditions): able to prevent the attacks

creatine ascorbate
motivation (lethargy) [3]: unexpectedly motivated
spirits (depressions) [3]: rise in spirits
strength (physical feebleness) [3]: gained in strength

creatine pyruvate
pain during menstruation ([2]; dose not stated): able to stop the pain
abdominal pain (PMS): no longer suffered
physical complaints of PMS (PMS): complete relief
tenderness and swelling of the breast (PMS): no longer suffered
